The source of these data is patent US10638756B2, “Molecules having pesticidal utility, and intermediates, compositions, and processes, related thereto” (Dow AgroSciences LLC, priority 2017, dated 2020).

Common to all, as to assay type: in vivo
The test system of data set [1] is Yellow Fever Mosquito (Aedes aegypti). Conditions: about 1 day-old larvae, 3 days, scored on mortality. The procedure: Certain molecules disclosed in this document were tested against YFM using procedures described in the following paragraph. In the reporting of the results, the “GPA & YFM Rating Table” was used (See Table Section).
Master plates containing 400 μg of a molecule dissolved in 100 μL of dimethyl sulfoxide (DMSO) (equivalent to a 4000 ppm solution) are used. A master plate of assembled molecules contains 15 μL per well. To this plate, 135 μL of a 90:10 water/acetone mixture is added to each well. A robot (Biomek® NXP Laboratory Automation Workstation) is programmed to dispense 15 μL aspirations from the master plate into an empty 96-well shallow plate (“daughter” plate). There are 6 reps (“daughter” plates) created per master. The created “daughter” plates are then immediately infested with YFM larvae.
The day before plates are to be treated, mosquito eggs are placed in Millipore water containing liver powder to begin hatching (4 g. into 400 mL). After the “daughter” plates are created using the robot, they are infested with 220 μL of the liver powder/larval mosquito mixture (about 1 day-old larvae). After plates are infested with mosquito larvae, a non-evaporative lid is used to cover the plate to reduce drying. Plates are held at room temperature for 3 days prior to grading. After 3 days, each well is observed and scored based on mortality. The results are indicated in the table entitled “Table ABC: Biological Results” (See Table Section).

The subject of data set [2] is Cabbage Looper (Trichoplusia ni). In words: Bioassay on Cabbage Looper (CL), 128-well diet tray assay. Conditions: 168 h, 50 μg/cm^2 on artificial diet, second instar larvae, five to seven days, read-out: CL % Control (or Mortality) rating. The essentials:
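Test molecule was dissolved in 90:10 acetone-water, applied to artificial diet at 50 μg/cm^2 and allowed to dry. Second-instar larvae were then added, one to five per well, and trays held at 25° C for five to seven days before mortality was scored and averaged.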

The test system of data set [3] is Beet Armyworm (Spodoptera exigua). The experiment in a line: Bioassay on Beet Armyworm (BAW), 128-well diet tray assay. Conditions: Spodoptera exigua, 168 h; 50 μg/cm^2 on artificial diet, second instar larvae, five to seven days; read-out: BAW % Control (or Mortality) rating.

As a reminder, the mortality is the share of the test organisms that died.

SMILES strings stand for the structures.

With `CN(NC(=O)c1ccc(/C(F)=C/C(c2ccc(Cl)c(Cl)c2)C(F)(F)F)cc1C(F)(F)F)c1ncccn1` (stereo not drawn) [F8, (Z)-4-(3-(3,4-Dichlorophenyl)-1,4,4,4-tetrafluorobut-1-en-1-yl)-N′-methyl-N′-(pyrimidin-2-yl)-2-(trifluoromethyl)benzohydrazideazide], the “YFM % Control (or Mortality) rating” value in data set [1] is recorded as “A (80-100)”. Besides, the mortality at 50 µg/cm2 in data set [2] and in data set [3] was 50 to 100% throughout.

`O=C(NNc1ccccn1)c1ccc(/C(F)=C/C(c2cc(Cl)c(Cl)c(Cl)c2)C(F)(F)F)cc1C(F)(F)F` (stereo not drawn) [F9, (Z)—N′-(Pyridin-2-yl)-4-(1,4,4,4-tetrafluoro-3-(3,4,5-trichlorophenyl)but-1-en-1-yl)-2-(trifluoromethyl)benzohydrazide]: in data set [1], the “YFM % Control (or Mortality) rating” value is “A (80-100)”. The mortality at 50 µg/cm2 in data set [2] and in data set [3] was 50 to 100% in each case.

For the compound `CN(NC(=O)c1ccc(/C(F)=C/C(c2cc(Cl)c(Cl)c(Cl)c2)C(F)(F)F)cc1C(F)(F)F)c1ccccc1` (stereo not drawn) [F11, (Z)—N′-Methyl-N′-phenyl-4-(1,4,4,4-tetrafluoro-3-(3,4,5-trichlorophenyl)but-1-en-1-yl)-2-(trifluoromethyl)benzohydrazide], the “YFM % Control (or Mortality) rating” value in data set [1] is given as “A (80-100)”. Moreover, the mortality at 50 µg/cm2 in data set [2] and in data set [3] was 50 to 100% in each case.

For the compound `COc1ccccc1NNC(=O)c1ccc(/C(F)=C/C(c2cc(Cl)c(Cl)c(Cl)c2)C(F)(F)F)cc1C(F)(F)F` (stereo not drawn) [F14, (Z)—N′-(2-Methoxyphenyl)-4-(1,4,4,4-tetrafluoro-3-(3,4,5-trichlorophenyl)but-1-en-1-yl)-2-(trifluoromethyl)benzohydrazide], in data set [1], the “YFM % Control (or Mortality) rating” value was “A (80-100)”. Besides, the mortality at 50 µg/cm2 in data set [2] and in data set [3] was 50 to 100% each time.

Regarding `O=C(NNc1ncccn1)c1ccc(/C(F)=C/C(c2ccc(Br)c(Cl)c2)C(F)(F)F)cc1C(F)(F)F` (stereo not drawn) [F16, (Z)-4-(3-(4-Bromo-3-chlorophenyl)-1,4,4,4-tetrafluorobut-1-en-1-yl)-N′-(pyrimidin-2-yl)-2-(trifluoromethyl)benzohydrazide], the “YFM % Control (or Mortality) rating” value in data set [1] is given as “A (80-100)”. Further, the mortality at 50 µg/cm2 in data set [2] and in data set [3] was 50 to 100% in each case.

Take `Cc1cc(F)ccc1NNC(=O)c1ccc(/C(F)=C/C(c2cc(Cl)c(Cl)c(Cl)c2)C(F)(F)F)cc1C(F)(F)F` (stereo not drawn) [F35, (Z)—N′-(4-Fluoro-2-methylphenyl)-4-(1,4,4,4-tetrafluoro-3-(3,4,5-trichlorophenyl)but-1-en-1-yl)-2-(trifluoromethyl)benzohydrazide]: the “YFM % Control (or Mortality) rating” value in data set [1] is “A (80-100)”. For the same compound, the mortality at 50 µg/cm2 in data set [2] and in data set [3] was 50 to 100% in each case.

Take `CN(NC(=O)c1ccc(/C(F)=C/C(c2ccc(Br)c(C(F)(F)F)c2)C(F)(F)F)cc1C(F)(F)F)c1ncccn1` (stereo not drawn) [F39, (Z)-4-(3-(4-Bromo-3-(trifluoromethyl)phenyl)-1,4,4,4-tetrafluorobut-1-en-1-yl)-N′-methyl-N′-(pyrimidin-2-yl)-2-(trifluoromethyl)benzohydrazide]: in data set [1], the “YFM % Control (or Mortality) rating” value is listed as “A (80-100)”. The mortality at 50 µg/cm2 in data set [2] and in data set [3] was 50 to 100% throughout.

For `O=C(NNc1ccc(F)cc1)c1ccc(/C(F)=C/C(c2cc(Cl)c(Cl)c(Cl)c2)C(F)(F)F)cc1C(F)(F)F` (stereo not drawn) [F52], the “YFM % Control (or Mortality) rating” value in data set [1] is recorded as “A (80-100)”. Further, the mortality at 50 µg/cm2 in data set [2] and in data set [3] was 50 to 100% throughout.

For `O=C(NNCc1ccccc1)c1ccc(/C(F)=C/C(c2cc(Cl)c(Cl)c(Cl)c2)C(F)(F)F)cc1C(F)(F)F` (stereo not drawn) [F54, (Z)—N′-Benzyl-4-(1,4,4,4-tetrafluoro-3-(3,4,5-trichlorophenyl)but-1-en-1-yl)-2-(trifluoromethyl)benzohydrazide], the “YFM % Control (or Mortality) rating” value in data set [1] is “A (80-100)”. For the same compound, the mortality at 50 µg/cm2 in data set [2] and in data set [3] was 50 to 100% in each case.

For the compound `O=C(NNc1ncccn1)c1ccc(/C(F)=C/C(c2cc(Cl)cc(Cl)c2)C(F)(F)F)cc1C(F)(F)F` (stereo not drawn) [F56, (Z)-4-(3-(3,5-Dichlorophenyl)-1,4,4,4-tetrafluorobut-1-en-1-yl)-N′-(pyrimidin-2-yl)-2-(trifluoromethyl)benzohydrazide], the “YFM % Control (or Mortality) rating” value in data set [1] is on record as “A (80-100)”. The mortality at 50 µg/cm2 in data set [2] and in data set [3] was 50 to 100% throughout.

As for `O=C(NNc1ncccn1)c1ccc(/C(F)=C/C(c2ccc(Br)c(C(F)(F)F)c2)C(F)(F)F)cc1C(F)(F)F` (stereo not drawn) [F78, (Z)-4-(3-(4-Bromo-3-(trifluoromethyl)phenyl)-1,4,4,4-tetrafluorobut-1-en-1-yl)-N′-(pyrimidin-2-yl)-2-(trifluoromethyl)benzohydrazide], in data set [1], the “YFM % Control (or Mortality) rating” value is given as “A (80-100)”. Also, the mortality at 50 µg/cm2 in data set [2] and in data set [3] was 50 to 100% in each case.

With `CN(NC(=O)c1ccc(/C(F)=C/C(c2cc(Cl)c(Cl)c(Cl)c2)C(F)(F)F)cc1C(F)(F)F)c1ccc(C#N)cn1` (stereo not drawn) [F82, (Z)—N′-(5-Cyanopyridin-2-yl)-N′-methyl-4-(1,4,4,4-tetrafluoro-3-(3,4,5-trichlorophenyl)but-1-en-1-yl)-2-(trifluoromethyl)benzohydrazide], the “YFM % Control (or Mortality) rating” value in data set [1] was “A (80-100)”. The mortality at 50 µg/cm2 in data set [2] and in data set [3] was 50 to 100% in each case.

As for `O=C(NNc1nnn[nH]1)c1ccc(/C(F)=C/C(c2cc(Cl)c(Cl)c(Cl)c2)C(F)(F)F)cc1C(F)(F)F` (stereo not drawn) [F95, (Z)-4-(1,4,4,4-Tetrafluoro-3-(3,4,5-trichlorophenyl)but-1-en-1-yl)-N′-(1H-tetrazol-5-yl)-2-(trifluoromethyl)benzohydrazide], the “YFM % Control (or Mortality) rating” value in data set [1] is “A (80-100)”. The mortality at 50 µg/cm2 in data set [2] and in data set [3] was 50 to 100% each time.

Take `O=C(NNc1ncccc1Cl)c1ccc(/C(F)=C/C(c2cc(Cl)c(Cl)c(Cl)c2)C(F)(F)F)cc1C(F)(F)F` (stereo not drawn) [F99, (Z)—N′-(3-Chloropyridin-2-yl)-4-(1,4,4,4-tetrafluoro-3-(3,4,5-trichlorophenyl)but-1-en-1-yl)-2-(trifluoromethyl)benzohydrazide]: the “YFM % Control (or Mortality) rating” value in data set [1] is on record as “A (80-100)”. Besides, the mortality at 50 µg/cm2 in data set [2] and in data set [3] was 50 to 100% throughout.

Turning to `N#Cc1cccc(NNC(=O)c2ccc(/C(F)=C/C(c3cc(Cl)c(Cl)c(Cl)c3)C(F)(F)F)cc2C(F)(F)F)c1` (stereo not drawn) [F100, (Z)—N′-(3-Cyanophenyl)-4-(1,4,4,4-tetrafluoro-3-(3,4,5-trichlorophenyl)but-1-en-1-yl)-2-(trifluoromethyl)benzohydrazide], in data set [1], the “YFM % Control (or Mortality) rating” value is “A (80-100)”. In addition, the mortality at 50 µg/cm2 in data set [2] and in data set [3] was 50 to 100% each time.

Regarding `CN(NC(=O)c1ccc(/C(F)=C/C(c2cc(Cl)c(Cl)c(Cl)c2)C(F)(F)F)cc1Br)c1ncccn1` (stereo not drawn) [F102, (Z)-2-Bromo-N′-methyl-N′-(pyrimidin-2-yl)-4-(1,4,4,4-tetrafluoro-3-(3,4,5-trichlorophenyl)but-1-en-1-yl)benzohydrazide], the “YFM % Control (or Mortality) rating” value in data set [1] is on record as “A (80-100)”. Also, the mortality at 50 µg/cm2 in data set [2] and in data set [3] was 50 to 100% throughout.

In the case of `Cc1csc(N(N)C(=O)c2ccc(/C(F)=C/C(c3cc(Cl)c(Cl)c(Cl)c3)C(F)(F)F)cc2C(F)(F)F)n1` (stereo not drawn) [F109, (Z)—N-(4-Methylthiazol-2-yl)-4-(1,4,4,4-tetrafluoro-3-(3,4,5-trichlorophenyl)but-1-en-1-yl)-2-(trifluoromethyl)benzohydrazide], in data set [1], the “YFM % Control (or Mortality) rating” value is reported as “A (80-100)”. The mortality at 50 µg/cm2 in data set [2] and in data set [3] was 50 to 100% each time.

On to `N#Cc1ccc(NNC(=O)c2ccc(/C(F)=C/C(c3cc(Cl)c(Cl)c(Cl)c3)C(F)(F)F)cc2C(F)(F)F)cc1` (stereo not drawn) [F111, (Z)—N′-(4-Cyanophenyl)-4-(1,4,4,4-tetrafluoro-3-(3,4,5-trichlorophenyl)but-1-en-1-yl)-2-(trifluoromethyl)benzohydrazide], for which the “YFM % Control (or Mortality) rating” value in data set [1] is “A (80-100)”. For the same compound, the mortality at 50 µg/cm2 in data set [2] and in data set [3] was 50 to 100% throughout.

Regarding `O=C(NNc1ncccn1)c1ccc(/C(F)=C/C(c2ccc(Cl)c(Cl)c2)C(F)(F)F)cc1C(F)(F)F` (stereo not drawn) [F117], the “YFM % Control (or Mortality) rating” value in data set [1] is recorded as “A (80-100)”. The mortality at 50 µg/cm2 in data set [2] and in data set [3] was 50 to 100% throughout.

For `O=C(NN1CCS(=O)(=O)CC1)c1ccc(/C(F)=C/C(c2cc(Cl)c(Cl)c(Cl)c2)C(F)(F)F)cc1C(F)(F)F` (stereo not drawn) [F122, (Z)—N-(1,1-dioxidothiomorpholino)-4-(1,4,4,4-tetrafluoro-3-(3,4,5-trichlorophenyl)but-1-en-1-yl)-2-(trifluoromethyl)benzamide], the “YFM % Control (or Mortality) rating” value in data set [1] is given as “D (No activity noticed in this bioassay)”. The mortality at 50 µg/cm2 in data set [2] and in data set [3] was 50 to 100% throughout.
